Test systems include A549; DLD-1; HCT-15; HL-60; HOP-92; HT-29; K562; MOLT-4; OVCAR-4; OVCAR-5; RPMI-8226; RXF 393; SK-MEL-28; SN12C; SNB-75; TK-10.
Assay in all cases: NCI anticancer screen, dose series, 48 h

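Where inhibition never reached the appropriate level, the endpoint shown equals the highest concentration tested. Otherwise, values were interpolated linearly from a five-concentration, 48-hour dose response in 96-well plates. GI50 marks 50% less growth.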 Calls of active or inactive are those of the source. Cut-off read from the data, not from the text of the source: active = GI50 up to about 1.1 µM and inactive = higher. Where only a bound is given, the exact number is not on record here.

Take `N#CCCc1nc2ccc(Br)cc2c(=O)n1-c1ccc(O)c([N+](=O)[O-])c1`: the GI50 is 55 µM (inactive) in the assay with A549; 16.9 µM (inactive) in the assay with DLD-1; 18.8 µM with HCT-15; 17.2 µM (inactive) in the assay with HL-60; 25.4 µM (inactive) in the assay on HOP-92; 27.7 µM (inactive) in the assay with HT-29. Besides, the GI50 was 23.9 µM (inactive) in the assay with K562; 19.6 µM (inactive) with MOLT-4; 20.5 µM (inactive) in the assay on OVCAR-4; 46.1 µM (inactive) in the assay on OVCAR-5; 17.3 µM (inactive) in the assay on RPMI-8226; 18.1 µM (inactive) in the assay with RXF 393. Moreover, the GI50 with SK-MEL-28 is 19.3 µM (inactive); with SN12C it was 19 µM (inactive); in the assay with SNB-75, 26.7 µM (inactive); in the assay with TK-10, 34.7 µM (inactive).
Turning to `Cc1cccc(C(C)(C)C)c1NC(=O)CCc1nnc(S)[nH]1`, the GI50 is > 100 µM (inactive) in the assay with A549; > 100 µM (inactive) with DLD-1; above 100 µM with HCT-15; > 100 µM (inactive) in the assay with HL-60; > 100 µM (inactive) in the assay with HOP-92; > 100 µM (inactive) with HT-29. Moreover, the GI50 in the assay on K562, in the assay with MOLT-4, in the assay on OVCAR-4, in the assay on OVCAR-5, in the assay with RPMI-8226 and in the assay on RXF 393 was > 100 µM (inactive) in each case. The GI50 in the assay on SK-MEL-28, in the assay with SN12C, in the assay on SNB-75 and with TK-10 was > 100 µM (inactive) in each case.
For `Cc1nc2c(o1)/C(=N\c1ccccc1)c1ccccc1/C2=N/c1ccccc1`, the GI50 in the assay on A549 is > 100 µM (inactive); in the assay with DLD-1 it was 53.6 µM (inactive); in the assay with HCT-15, 16 µM; in the assay with HL-60 it was > 100 µM (inactive); with HOP-92, 49.2 µM (inactive); in the assay on HT-29, 94.2 µM (inactive). In addition, the GI50 is 33.8 µM (inactive) in the assay on K562; > 100 µM (inactive) with MOLT-4; 58.7 µM (inactive) in the assay with OVCAR-4; > 100 µM (inactive) in the assay with OVCAR-5; 47 µM (inactive) in the assay on RPMI-8226; > 100 µM (inactive) in the assay with RXF 393. For the same compound, the figures for the GI50 in the assay on SN12C, in the assay with SNB-75 and in the assay on TK-10 were 63.4 µM (inactive), 61.8 µM (inactive) and > 100 µM (inactive), respectively.
For the compound `CCc1ccccc1NC(=O)CCc1n[nH]c(=S)o1`, the GI50 in the assay on A549 is > 100 µM (inactive); in the assay on DLD-1, 92.5 µM (inactive); in the assay with HCT-15, 19.3 µM; in the assay on HL-60, > 100 µM (inactive); with HOP-92 it was > 100 µM (inactive); with HT-29, > 100 µM (inactive). Besides, the GI50 in the assay with K562 is > 100 µM (inactive); in the assay with MOLT-4 it was > 100 µM (inactive); in the assay with OVCAR-4, > 100 µM (inactive); in the assay on OVCAR-5, > 100 µM (inactive); in the assay on RPMI-8226, 98.9 µM (inactive); in the assay on SK-MEL-28, > 100 µM (inactive). For the same compound, the GI50 in the assay on SN12C, in the assay with SNB-75 and in the assay with TK-10 was > 100 µM (inactive) in each case.
Take `CN(C)/N=C(\CCN1CCCC1)CC(c1ccccc1)c1c(O)c2ccccc2oc1=O` (stereo unspecified): the GI50 in the assay with A549 is > 100 µM (inactive); with DLD-1, > 100 µM (inactive); in the assay on HL-60 it was 25.2 µM (inactive); in the assay with HOP-92, > 100 µM (inactive); in the assay on HT-29, > 100 µM (inactive); in the assay with K562, > 100 µM (inactive). Also, the GI50 in the assay on OVCAR-4, in the assay with OVCAR-5, in the assay with RPMI-8226, in the assay on RXF 393, in the assay on SK-MEL-28 and with SN12C was > 100 µM (inactive) in each case. Further, the GI50 with SNB-75 is 58.2 µM (inactive); in the assay with TK-10, > 100 µM (inactive).
